Results from patent publication US8563067B2, “Extended shelf life and bulk transport of perishable organic liquids with low pressure carbon dioxide” (Cornell Research Foundation, Inc., priority 2004, dated 2013).

Legend:
Type in all cases: cell-based
Escherichia coli = test: E. coli count (Petrifilm) in raw milk under CO2 pressure (Example 1); settings: 4° C.
Experimental: Milk samples were mixed and 5 ml of milk added into the treatment and control vessels. The treatment vessel was connected to the apparatus and the control vessel closed off. Both vessels were placed in the water bath. When the desired temperatures were attained in both treatment and control vessels, CO2 was introduced through the bottom of the treatment vessel until the set pressure was reached. The CO2 pressure was maintained throughout the test period. When the desired time was reached, the CO2 inlet was turned off, the pressure release valve on the outlet line opened, and the pressure released in under one minute. After depressurization, the treatment and control vessels were removed from the water bath and their external surfaces were wiped dry, sanitized with 95% ethanol, detached from the apparatus and transferred into sterile containers for dilution and plating.
The progression of these counts (total, Coliform/E. coli and thermoduric bacteria) in the treatment and control samples was tracked by conducting checks on the total aerobic counts (SPC) on treatment days 4 and 6. Based on the levels of total counts on days 4 and 6, analyses of total coli forms/E. coli and thermoduric bacteria after day 6 were conducted either in 1-day or 2-day intervals. The control sample final count was measured on days 4 and 6.
Initial total, coliform, and thermoduric counts were each determined for control and treated samples. Thermoduric organisms were enumerated by the laboratory pasteurization count (LPC) method described in the Standard Methods for the Examination of Dairy Products (Houghtby et al., 1992). The 3M Petri film count plate (3M Microbiology Products, St. Paul, Minn.) was used to enumerate total coli forms and Escherichia coli in the raw, treated and control milk samples.

[1] = tested on: gram-negative non-lactose fermenting bacteria; test: Gram-negative non-lactose fermenting bacteria on MacConkey agar, raw milk under CO2 pressure (Example 1); settings: 6.1° C., 4 days
Experimental: (§1) Raw milk from the T&R Center was monitored for changes in aerobic bacteria, gram-negative bacteria and total Lactobacillus spp. as follows: CO2 pressures of 0 (control), 68, 172, 344, 516 and 689 kPa, at 6.1° C. for 4-days. SPC, gram-negative bacteria and total Lactobacillus spp. were enumerated before (day 0) and after (day 4) treatment. Gram negative bacteria were enumerated on MacConkey Agar (Difco Manual, Becton Dickinson & Co., Sparks, Md.), a selective and differential media which can be used to discriminate between lactose fermenting and non-lactose fermenting gram-negative bacteria. Use of this media allows a one-step method of obtaining estimates of both coliform and non-coliform gram negative bacteria. Coliform bacteria may include species of Escherichia, Klebsiella and Enterobacter, potential pathogens and/or spoilage organisms. Non-coliform gram negative bacteria may include spoilage organisms such as pseudomonads or potential pathogens such as Salmonella spp. or Shigella spp. […]
(§2) For all microbiological assays, milk sample aliquots of 1 ml were used in dilution series. […] Representative and distinctive suspect colonies were gram stained, and confirmed gram positive bacilli colonies were counted as an estimate of total Lactobacillus spp.

Lactobacillus spp. = test: Total Lactobacillus spp. on acidified MRS agar, raw milk under CO2 pressure (Example 1); settings: current study
Experimental: as §1, §2

## O=C=O [CO2, carbon dioxide]
Escherichia coli; 689 kPa CO2 pressure, 4 days, raw milk
  E.coli counts, Treated, 4 Days: 1.7 * 10^1k cfu/ml
Escherichia coli; 689 kPa CO2 pressure, 6 days, raw milk
  E.coli counts, Treated, 6 Days: 1.7 * 10^1k cfu/ml
Escherichia coli; 689 kPa CO2 pressure, 8 days, raw milk
  E.coli counts, Treated, 8 Days: 1.7 * 10^1k cfu/ml
Escherichia coli; 689 kPa CO2 pressure, 9 days, raw milk
  E.coli counts, Treated, 9 Days: 1.5 * 10^1k cfu/ml
Escherichia coli; 689 kPa, up to 9 days
  E. coli counts in treated milk: Neither E. coli nor total thermoduric bacteria counts increased
[1]; 68 to 689 kPa
  levels of gram-negative non-fermenters compared to untreated controls: reduced at all pressures
[1]; 689 kPa
  decrease of gram-negative non-lactose fermenting bacteria compared to initial counts: 0.64 log10 cfu/ml
Lactobacillus spp.
  populations of Lactobacillus after CO2 pressure treatment: decreased
